The supplement of paper PMC10307832

Columns and labels:
Test in all cases: relative viability (nuclei count vs DMSO), 5 days (fraction); higher = more cells survive
Masitinib + Palbociclib = compound: Cc1ccc(NC(=O)c2ccc(CN3CCN(C)CC3)cc2)cc1Nc1nc(-c2cccnc2)cs1 [Masitinib] + CC(=O)c1c(C)c2cnc(Nc3ccc(N4CCNCC4)cn3)nc2n(C2CCCC2)c1=O [Palbociclib] (partner 0.5 µM)
In short: (§1)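 Dosing by pin tool came one day after lung cancer cell lines were seeded in 1536-well plates, using either one drug or a fixed anchor-drug dose plus five library-drug doses (not always all listed) in √10 steps. After 5 days, nuclei were counted on 4× images. Relative viability is treated-well nuclei count divided by vehicle-well nuclei count, and values are medians of duplicate plates.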

Masitinib + Bortezomib = compound: Cc1ccc(NC(=O)c2ccc(CN3CCN(C)CC3)cc2)cc1Nc1nc(-c2cccnc2)cs1 [Masitinib] + CC(C)C[C@H](NC(=O)[C@H](Cc1ccccc1)NC(=O)c1cnccn1)B(O)O [Bortezomib] (partner 0.002 µM)
In short: as §1

Masitinib + AZD7762 = compound: Cc1ccc(NC(=O)c2ccc(CN3CCN(C)CC3)cc2)cc1Nc1nc(-c2cccnc2)cs1 [Masitinib] + NC(=O)Nc1cc(-c2cccc(F)c2)sc1C(=O)N[C@H]1CCCNC1 [AZD7762] (partner 0.2 µM)
In short: as §1

[1] = compound: CC1=CC(=CC=C1)NC2=NC(=CS2)C3=CC=NC=C3 + Cc1nc(NC(=O)N2CCC[C@H]2C(N)=O)sc1-c1ccnc(C(C)(C)C(F)(F)F)c1 [Alpelisib] (partner 2 µM)
In short: as §1

Cell Line | relative viability (Masitinib + Palbociclib; first compound 0.01 µM) | relative viability (Masitinib + Palbociclib; first compound 0.03162 µM) | relative viability (Masitinib + Palbociclib; first compound 0.1 µM) | relative viability (Masitinib + Palbociclib; first compound 0.3162 µM) | relative viability (Masitinib + Palbociclib; first compound 1 µM) | relative viability (Masitinib + Bortezomib; first compound 0.01 µM) | relative viability (Masitinib + Bortezomib; first compound 0.03162 µM) | relative viability (Masitinib + Bortezomib; first compound 0.1 µM) | relative viability (Masitinib + Bortezomib; first compound 0.3162 µM) | relative viability (Masitinib + Bortezomib; first compound 1 µM) | relative viability (Masitinib + AZD7762; first compound 0.01 µM) | relative viability (Masitinib + AZD7762; first compound 0.03162 µM) | relative viability (Masitinib + AZD7762; first compound 0.1 µM) | relative viability (Masitinib + AZD7762; first compound 0.3162 µM) | relative viability (Masitinib + AZD7762; first compound 1 µM) | relative viability ([1]; first compound 0.08 µM) | relative viability ([1]; first compound 0.253 µM) | relative viability ([1]; first compound 0.8 µM) | relative viability ([1]; first compound 2.53 µM) | relative viability ([1]; first compound 8 µM)
BEN | 0.42 | 0.431 | 0.51 | 0.513 | 0.46 | 1.15 | 0.662 | 0.874 | 0.666 | 0.831 | 0.849 | 0.64 | 0.882 | 0.607 | 0.77 | 1.11 | 0.973 | 1.07 | 0.856 | 0.91
EMC-BAC-2 | 0.434 | 0.473 | 0.509 | 0.524 | 0.51 | 0.942 | 1.04 | 0.974 | 1.15 | 1.05 | 0.862 | 1.01 | 1.03 | 1.05 | 1.01 | 0.66 | 0.747 | 0.702 | 0.779 | 0.719
LXF-289 | 0.553 | 0.6 | 0.655 | 0.627 | 0.595 | 0.876 | 0.97 | 0.966 | 1.06 | 0.992 | 0.996 | 1.18 | 1.18 | 1.14 | 1.02 | 0.993 | 1.03 | 1.02 | 1.03 | 0.91
ABC-1 | 0.699 | 0.855 | 0.784 | 0.598 | 0.661 | 0.324 | 0.296 | 0.287 | 0.306 | 0.256 | 0.711 | 0.901 | 0.743 | 0.493 | 0.801 | 0.928 | 0.891 | 0.873 | 0.907 | 0.967
NCI-H1355 | 0.37 | 0.601 | 0.4 | 0.292 | 0.343 | 0.949 | 1.3 | 1.02 | 1.02 | 1.06 | 0.726 | 0.747 | 0.791 | 0.481 | 0.517 | 0.719 | 0.512 | 0.483 | 0.51 | 0.587
NCI-H2405 | 0.48 | 0.504 | 0.508 | 0.499 | 0.514 | 0.929 | 0.878 | 0.879 | 0.944 | 0.948 | 0.741 | 0.778 | 0.738 | 0.692 | 0.634 | 0.679 | 0.799 | 0.578 | 0.87 | 0.699
NCI-H441 | 0.232 | 0.211 | 0.262 | 0.188 | 0.191 | 0.777 | 0.451 | 0.658 | 0.673 | 0.448 | 1.23 | 1.2 | 1.28 | 1.35 | 1.28 | 0.659 | 0.75 | 0.73 | 0.577 | 0.811
PC-14 | 0.57 | 0.323 | 0.636 | 0.57 | 0.621 | 0.786 | 0.878 | 0.857 | 0.84 | 0.846 | 0.349 | 0.242 | 0.384 | 0.366 | 0.235 | 0.942 | 0.988 | 0.851 | 0.989 | 0.94
